US9453026B2, “ACC inhibitors and uses thereof” (Gilead Apollo, Inc., priority 2011, dated 2016)

Experiments:
[1] = target: ACC1 (Homo sapiens, UniProt Q13085); assay: In vitro ACC1 inhibition assay (ADP-Glo); type: biochemical; settings: read-out: ACC1
Procedure, shortened: (§1)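 Enzyme (human ACC1 or ACC2) and compound, serially diluted 1:3 over 11 points from a 600 uM DMSO stock, were preincubated 15 min before substrate addition.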

[2] = target: ACC2 (Homo sapiens, UniProt O00763); assay: In vitro ACC2 inhibition assay (ADP-Glo); type: biochemical; settings: read-out: ACC2
Chain of ACC2 (O00763 whole entry, species assumed): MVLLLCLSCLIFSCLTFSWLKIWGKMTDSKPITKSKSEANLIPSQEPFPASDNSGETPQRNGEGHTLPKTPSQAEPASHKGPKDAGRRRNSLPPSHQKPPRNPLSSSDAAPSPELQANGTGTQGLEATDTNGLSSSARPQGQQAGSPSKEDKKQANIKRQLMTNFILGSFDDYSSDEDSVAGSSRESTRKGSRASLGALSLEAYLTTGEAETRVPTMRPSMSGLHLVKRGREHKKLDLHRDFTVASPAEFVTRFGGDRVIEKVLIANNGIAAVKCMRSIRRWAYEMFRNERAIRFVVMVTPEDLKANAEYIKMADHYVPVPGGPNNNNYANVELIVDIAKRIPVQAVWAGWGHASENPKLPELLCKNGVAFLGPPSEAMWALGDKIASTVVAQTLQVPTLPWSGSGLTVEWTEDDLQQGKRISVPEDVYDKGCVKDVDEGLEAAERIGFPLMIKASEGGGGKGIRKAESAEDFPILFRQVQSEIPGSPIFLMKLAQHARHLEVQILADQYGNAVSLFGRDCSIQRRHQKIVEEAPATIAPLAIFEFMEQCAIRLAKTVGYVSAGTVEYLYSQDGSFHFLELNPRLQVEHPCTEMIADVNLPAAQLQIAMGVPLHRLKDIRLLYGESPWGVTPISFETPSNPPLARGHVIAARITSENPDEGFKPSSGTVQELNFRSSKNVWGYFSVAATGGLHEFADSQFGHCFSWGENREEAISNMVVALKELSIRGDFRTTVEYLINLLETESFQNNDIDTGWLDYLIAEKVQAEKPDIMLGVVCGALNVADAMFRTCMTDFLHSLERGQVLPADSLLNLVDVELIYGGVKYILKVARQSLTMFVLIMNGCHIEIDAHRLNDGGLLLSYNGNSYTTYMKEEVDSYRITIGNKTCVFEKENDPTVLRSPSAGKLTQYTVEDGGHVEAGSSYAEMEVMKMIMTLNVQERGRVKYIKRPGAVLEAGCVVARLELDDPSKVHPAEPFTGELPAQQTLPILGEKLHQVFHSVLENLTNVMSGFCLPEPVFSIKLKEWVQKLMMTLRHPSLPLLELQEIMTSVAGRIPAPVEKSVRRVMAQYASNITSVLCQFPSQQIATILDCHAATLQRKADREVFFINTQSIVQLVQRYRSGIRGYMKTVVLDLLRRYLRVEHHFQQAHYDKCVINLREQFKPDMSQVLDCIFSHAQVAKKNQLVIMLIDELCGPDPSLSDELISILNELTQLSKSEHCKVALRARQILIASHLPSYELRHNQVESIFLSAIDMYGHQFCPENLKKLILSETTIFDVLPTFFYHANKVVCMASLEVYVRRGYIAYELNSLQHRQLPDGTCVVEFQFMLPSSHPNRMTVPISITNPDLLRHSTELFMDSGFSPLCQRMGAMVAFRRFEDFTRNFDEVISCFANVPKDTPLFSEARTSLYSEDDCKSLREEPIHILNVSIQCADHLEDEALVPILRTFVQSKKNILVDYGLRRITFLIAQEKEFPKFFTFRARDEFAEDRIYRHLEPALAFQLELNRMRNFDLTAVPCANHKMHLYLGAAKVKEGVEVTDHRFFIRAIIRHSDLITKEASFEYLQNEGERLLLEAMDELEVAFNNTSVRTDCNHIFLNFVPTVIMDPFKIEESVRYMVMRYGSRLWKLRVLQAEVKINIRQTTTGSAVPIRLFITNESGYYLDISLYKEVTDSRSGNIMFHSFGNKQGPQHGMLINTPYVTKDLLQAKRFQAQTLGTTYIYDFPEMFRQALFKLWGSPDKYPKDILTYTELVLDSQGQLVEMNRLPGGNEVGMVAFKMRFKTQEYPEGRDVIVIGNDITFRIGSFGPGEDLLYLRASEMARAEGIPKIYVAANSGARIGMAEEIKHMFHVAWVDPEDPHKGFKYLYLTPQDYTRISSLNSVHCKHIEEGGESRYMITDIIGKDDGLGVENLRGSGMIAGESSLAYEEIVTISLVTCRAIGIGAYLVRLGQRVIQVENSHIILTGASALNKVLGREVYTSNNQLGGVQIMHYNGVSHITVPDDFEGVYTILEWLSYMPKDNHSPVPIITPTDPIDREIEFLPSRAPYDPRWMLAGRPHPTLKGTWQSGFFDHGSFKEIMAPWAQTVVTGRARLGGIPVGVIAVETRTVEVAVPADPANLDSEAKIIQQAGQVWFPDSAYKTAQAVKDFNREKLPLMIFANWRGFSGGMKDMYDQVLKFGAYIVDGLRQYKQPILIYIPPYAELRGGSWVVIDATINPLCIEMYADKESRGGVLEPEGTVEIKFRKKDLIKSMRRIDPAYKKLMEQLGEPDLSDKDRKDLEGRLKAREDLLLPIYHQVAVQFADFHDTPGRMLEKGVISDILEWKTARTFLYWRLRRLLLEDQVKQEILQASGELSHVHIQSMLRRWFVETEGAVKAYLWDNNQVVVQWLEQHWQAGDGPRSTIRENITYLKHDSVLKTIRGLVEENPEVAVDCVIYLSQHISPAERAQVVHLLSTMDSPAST
Procedure, shortened: as §1

SMILES | IC50 [1] | IC50 [2]
Cc1c(-c2ncco2)sc2c1c(=O)n(C(C)(C)C(=O)O)c(=O)n2C[C@H](O[C@H]1CC[C@](C)(O)CC1)c1ccccc1 [I-163, 2-(1-((R)-2-(((1r,4R)-4-hydroxy-4-methylcyclohexyl)oxy)-2-phenylethyl)-5-methyl-6-(oxazol-2-yl)-2,4-dioxo-1,2-dihydrothieno[2,3-d]pyrimidin-3(4H)-yl)-2-methylpropanoic acid] | < 1 µM | < 1 µM
COc1ccccc1[C@H](Cn1c(=O)n(C(C)(C)C(=O)O)c(=O)c2c(C)c(-c3ncco3)sc21)OCCO [I-254, 2-[1-[(2R)-2-(2-hydroxyethoxy)-2-(2-methoxyphenyl)ethyl]-5-methyl-6-(1,3-oxazol-2-yl)-2,4-dioxo-1H,2H,3H,4H-thieno[2,3-d]pyrimidin-3-yl]-2-methylpropanoic acid] | < 0.1 µM | < 0.1 µM
CCc1ccccc1[C@H](Cn1c(=O)n(C(C)(C)C(=O)O)c(=O)c2c(C)c(-c3ncco3)sc21)OC1CCOCC1 [I-249, 2-[1-[(2R)-2-(2-ethylphenyl)-2-(oxan-4-yloxy)ethyl]-5-methyl-6-(1,3-oxazol-2-yl)-2,4-dioxo-1H,2H,3H,4H-thieno[2,3-d]pyrimidin-3-yl]-2-methylpropanoic acid] | < 0.1 µM | < 0.1 µM
COc1ccccc1[C@H](Cn1c(=O)n(C(C)(C)C(=O)N2CCCC2)c(=O)c2c(C)c(-c3ncco3)sc21)OC(C)C [I-238, 1-[(2R)-2-(2-methoxyphenyl)-2-(propan-2-yloxy)ethyl]-5-methyl-3-[2-methyl-1-oxo-1-(pyrrolidin-1-yl)propan-2-yl]-6-(1,3-oxazol-2-yl)-1H,2H,3H,4H-thieno[2,3-d]pyrimidine-2,4-dione] | < 0.1 µM | < 0.1 µM
CCOC(=O)c1sc2c(c1C)c(=O)n(CCc1nnn[nH]1)c(=O)n2CCc1ccccc1 [I-61] | < 5 µM | < 5 µM
CCOC(=O)c1sc2c(c1C)c(=O)n(CCCO)c(=O)n2CCc1ccccc1 [I-19, ethyl 3-(3-hydroxypropyl)-5-methyl-2,4-dioxo-1-(2-phenylethyl)-1H,2H,3H,4H-thieno[2,3-d]pyrimidine-6-carboxylate] | < 5 µM | 5 to 20 µM
CCOC(=O)c1sc2c(c1C)c(=O)n(CC(N)=O)c(=O)n2CCc1ccccc1 [I-14] | < 5 µM | < 5 µM
CCOC(=O)c1sc2c(c1C)c(=O)n(CC(=O)O)c(=O)n2CC(O)c1ccccc1 (stereo not shown) [I-60, 2-[6-(ethoxycarbonyl)-1-(2-hydroxy-2-phenylethyl)-5-methyl-2,4-dioxo-1H,2H,3H,4H-thieno[2,3-d]pyrimidin-3-yl]acetic acid] | < 5 µM | < 5 µM
Cc1c(-c2ncco2)sc2c1c(=O)n(C(C)(C)C(=O)O)c(=O)n2C[C@H](O[C@H]1CC[C@@H](O)CC1)c1ccccc1OC(C)C [I-295, 2-(1-((R)-2-(((1s,4S)-4-hydroxycyclohexyl)oxy)-2-(2-isopropoxyphenyl)ethyl)-5-methyl-6-(oxazol-2-yl)-2,4-dioxo-1,2-dihydrothieno[2,3-d]pyrimidin-3(4H)-yl)-2-methylpropanoic] | < 0.1 µM | < 0.1 µM
CCCc1ccccc1CCn1c(=O)n(C(C)(C)C(=O)O)c(=O)c2c(C)c(-c3ncco3)sc21 [I-147, 2-methyl-2-[5-methyl-6-(1,3-oxazol-2-yl)-2,4-dioxo-1-[2-(2-propylphenyl)ethyl]-1H,2H,3H,4H-thieno[2,3-d]pyrimidin-3-yl]propanoic acid] | < 1 µM | < 1 µM
CCOC(=O)c1sc2c(c1C)c(=O)n(C(C)(C)C(=O)O)c(=O)n2CCc1ccccc1 [I-70, 2-[6-(ethoxycarbonyl)-5-methyl-2,4-dioxo-1-(2-phenylethyl)-1H,2H,3H,4H-thieno[2,3-d]pyrimidin-3-yl]-2-methylpropanoic acid] | < 1 µM | < 1 µM
